In patent publication US20200024278A1, “COMPOSITION COMPRISING ANTIBIOTIC COMPOUND AND AN HETEROCYCLIC COMPOUND AND THEIR USE IN PREVENTING OR TREATING BACTERIAL INFECTIONS” (MUTABILIS, priority 2016, published 2020):

Key:
Test in all cases: MIC, broth microdilution (CLSI), substance alone or ATB combined with compound at 4 or 8 μg/mL
ECL P99 = assay type: cell-based, E. cloacae; conditions: ECL P99; for MIC ATB combined with Example: Example @4 μg/ml
Outline: (§1)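 Antibiotic MICs were determined in presence of fixed compound at 4 or 8 μg/mL, and compound MICs alone, by visual growth inhibition. Inoculum 5·10^5 CFU/mL in ca-MHB, incubated 35 °C for 16-20 h per CLSI-M7-A7. Glucose-6-phosphate (25 μg/ml) added when fosfomycin was tested.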

ABA UFR154 = assay type: cell-based, A. baumannii; conditions: Acinetobacter baumannii, substance alone, read-out: MIC
Outline: as §1

ABA UFR155 = assay type: cell-based, A. baumannii; conditions: Acinetobacter baumannii, substance alone, read-out: MIC
Outline: as §1

KPN BAA-1898 = assay type: cell-based, K. pneumoniae; conditions: KPN BAA-1898; for MIC ATB combined with Example: Example @4 μg/ml
Outline: as §1

KPN 6299 = assay type: cell-based, K. pneumoniae; conditions: for MIC ATB combined with Example: Example @4 μg/ml
Outline: as §1

KPN UFR42 = assay type: cell-based, K. pneumoniae; conditions: KPN UFR42; for MIC ATB combined with Example: Example @4 μg/ml; for MIC ATB combined with Example compound: compound @4 μg/ml
Outline: as §1

SAU 29213 = assay type: cell-based, S. aureus; conditions: for MIC ATB combined with Example / MIC ATB combined with Example compound: SAU 29213; for MIC ATB combined with Example: Example @4 μg/ml; for MIC ATB combined with Example compound: compound @4 μg/ml
Outline: as §1

ECO UFR39 = assay type: cell-based, E. coli; conditions: ECO UFR39; for MIC ATB combined with Example: Example @4 μg/ml; for MIC ATB combined with Example compound: compound @4 μg/ml
Outline: as §1

ECO 190317 = assay type: cell-based, E. coli; conditions: ECO 190317; for MIC ATB combined with Example: Example @4 μg/ml
Outline: as §1

PAE UFR90 = assay type: cell-based, P. aeruginosa; conditions: PAE UFR90; for MIC ATB combined with Example: Example @4 μg/ml; for MIC ATB combined with Example compound: compound @4 μg/ml
Outline: as §1

PAE UFR48 = assay type: cell-based, P. aeruginosa; conditions: PAE UFR48; for MIC ATB combined with Example: Example @4 μg/ml; for MIC ATB combined with Example compound: compound @4 μg/ml
Outline: as §1

PAE 105250 = assay type: cell-based, P. aeruginosa; conditions: PAE 105250; for MIC ATB combined with Example: Example @4 μg/ml; for MIC ATB combined with Example compound: compound @4 μg/ml
Outline: as §1

SPN 49619 = assay type: cell-based, S. pneumoniae; conditions: SPN 49619; for MIC ATB combined with Example: Example @4 μg/ml; for MIC ATB combined with Example compound: compound @4 μg/ml
Outline: as §1

[1] = Escherichia coli, substance alone, read-out: MIC
[2] = Pseudomonas aeruginosa, substance alone, read-out: MIC

MIC ATB combined with Example (ECL P99; ATB ATM): <0.031 µg/mL
MIC ATB combined with Example (ECL P99; ATB FEP): <0.031 µg/mL
MIC ATB combined with Example (ECL P99; ATB FOS): <=0.125 μg/mL
MIC ATB combined with Example (ECL P99; ATB MEM): <0.031 µg/mL
MIC ATB combined with Example (ECL P99; ATB PIP): <0.031 µg/mL
MIC (ECL P99; Enterobacter cloacae, substance alone, read-out: MIC): 2 µg/mL
MIC ATB combined with Example compound (ECL P99; MIC of CIP, compound @4 μg/ml): <=0.031 μg/mL
MIC (ABA UFR154): > 32 µg/mL
MIC (ABA UFR155): > 32 µg/mL
MIC ATB combined with Example (KPN BAA-1898; ATB ATM): <0.031 µg/mL
MIC ATB combined with Example (KPN BAA-1898; ATB FEP): <0.031 µg/mL
MIC ATB combined with Example (KPN BAA-1898; ATB FOS): 0.25 µg/mL
MIC ATB combined with Example (KPN BAA-1898; ATB MEM): <0.031 µg/mL
MIC ATB combined with Example (KPN BAA-1898; ATB PIP): <0.031 µg/mL
MIC (KPN BAA-1898; Klebsiella pneumoniae, BAA1898, substance alone, read-out: MIC): 4 µg/mL
MIC ATB combined with Example compound (KPN BAA-1898; MIC of CIP, compound @4 μg/ml): <=0.031 μg/mL
MIC ATB combined with Example (KPN 6299; ATB ATM): <0.031 µg/mL
MIC ATB combined with Example (KPN 6299; ATB FEP): <=0.25 μg/mL
MIC ATB combined with Example (KPN 6299; ATB FOS): <=0.125 μg/mL
MIC ATB combined with Example (KPN 6299; ATB MEM): <0.031 µg/mL
MIC ATB combined with Example (KPN 6299; ATB PIP): <0.031 µg/mL
MIC ATB combined with Example compound (KPN 6299; MIC of CIP, compound @4 μg/ml): 0.063 µg/mL
MIC ATB combined with Example (KPN UFR42; ATB ATM): <0.031 µg/mL
MIC ATB combined with Example (KPN UFR42; ATB FEP): <0.031 µg/mL
MIC ATB combined with Example (KPN UFR42; ATB FOS): <=0.125 μg/mL
MIC ATB combined with Example (KPN UFR42; ATB MEM): <0.031 µg/mL
MIC ATB combined with Example (KPN UFR42; ATB PIP): <0.031 µg/mL
MIC (KPN UFR42; Klebsiella pneumoniae, substance alone, read-out: MIC): 4 µg/mL
MIC ATB combined with Example compound (KPN UFR42; MIC of CIP): >32 µg/mL
MIC ATB combined with Example compound (KPN UFR42; MIC of CPO): <=0.031 μg/mL
MIC ATB combined with Example (SAU 29213; ATB ATM): >32 µg/mL
MIC ATB combined with Example (SAU 29213; ATB FEP): 0.5 µg/mL
MIC ATB combined with Example (SAU 29213; ATB FOS): 0.25 µg/mL
MIC ATB combined with Example (SAU 29213; ATB MEM): <=0.031 μg/mL
MIC ATB combined with Example (SAU 29213; ATB PIP): 0.5 µg/mL
MIC ATB combined with Example compound (SAU 29213; MIC of CIP): <=0.031 μg/mL
MIC ATB combined with Example compound (SAU 29213; MIC of CLI): <0.0010 µg/mL
MIC ATB combined with Example compound (SAU 29213; MIC of CPO): 0.063 µg/mL
MIC ATB combined with Example compound (SAU 29213; MIC of DAP): <=0.0020 μg/mL
MIC ATB combined with Example compound (SAU 29213; MIC of ERY): <0.0020 µg/mL
MIC ATB combined with Example compound (SAU 29213; MIC of LZD): 0.016 µg/mL
MIC ATB combined with Example compound (SAU 29213; MIC of RIF): 0.0039 µg/mL
MIC ATB combined with Example compound (SAU 29213; MIC of SYN): 0.063 µg/mL
MIC ATB combined with Example compound (SAU 29213; MIC of VAN): 0.5 µg/mL
MIC (SAU 29213; Staphylococcus aureus, substance alone, SAU 29213 (MSSA 29213), read-out: MIC): 4 µg/mL
MIC ATB combined with Example (ECO UFR39; ATB ATM): <0.031 µg/mL
MIC ATB combined with Example (ECO UFR39; ATB FEP): <0.031 µg/mL
MIC ATB combined with Example (ECO UFR39; ATB FOS): <=0.125 μg/mL
MIC ATB combined with Example (ECO UFR39; ATB MEM): <0.031 µg/mL
MIC ATB combined with Example (ECO UFR39; ATB PIP): <0.031 µg/mL
MIC (ECO UFR39; [1]): 2 µg/mL
MIC ATB combined with Example compound (ECO UFR39; MIC of CIP): <=0.031 μg/mL
MIC ATB combined with Example compound (ECO UFR39; MIC of CPO): <=0.031 μg/mL
MIC ATB combined with Example (ECO 190317; ATB ATM): <0.031 µg/mL
MIC ATB combined with Example (ECO 190317; ATB FEP): <0.031 µg/mL
MIC ATB combined with Example (ECO 190317; ATB FOS): <0.125 µg/mL
MIC ATB combined with Example (ECO 190317; ATB MEM): <0.031 µg/mL
MIC ATB combined with Example (ECO 190317; ATB PIP): <0.031 µg/mL
MIC (ECO 190317; [1]): 1 µg/mL
MIC ATB combined with Example compound (ECO 190317; MIC of CIP, compound @4 μg/ml): <0.031 µg/mL
MIC ATB combined with Example (PAE UFR90; ATB ATM): 4 µg/mL
MIC ATB combined with Example (PAE UFR90; ATB FEP): 2 µg/mL
MIC ATB combined with Example (PAE UFR90; ATB FOS): 8 µg/mL
MIC ATB combined with Example (PAE UFR90; ATB MEM): 1 µg/mL
MIC ATB combined with Example (PAE UFR90; ATB PIP): 16 µg/mL
MIC ATB combined with Example compound (PAE UFR90; MIC of CIP): 1 µg/mL
MIC ATB combined with Example compound (PAE UFR90; MIC of CPO): 4 µg/mL
MIC (PAE UFR90; [2]): > 32 µg/mL
MIC ATB combined with Example (PAE UFR48; ATB ATM): 8 µg/mL
MIC ATB combined with Example (PAE UFR48; ATB FEP): 32 µg/mL
MIC ATB combined with Example (PAE UFR48; ATB FOS): 32 µg/mL
MIC ATB combined with Example (PAE UFR48; ATB MEM): 0.5 µg/mL
MIC ATB combined with Example (PAE UFR48; ATB PIP): 32 µg/mL
MIC ATB combined with Example compound (PAE UFR48; MIC of CIP): 4 µg/mL
MIC ATB combined with Example compound (PAE UFR48; MIC of CPO): >32 µg/mL
MIC (PAE UFR48; [2]): > 32 µg/mL
MIC ATB combined with Example (PAE 105250; ATB ATM): 8 µg/mL
MIC ATB combined with Example (PAE 105250; ATB FEP): 8 µg/mL
MIC ATB combined with Example (PAE 105250; ATB FOS): >128 µg/mL
MIC ATB combined with Example (PAE 105250; ATB MEM): 2 µg/mL
MIC ATB combined with Example (PAE 105250; ATB PIP): 32 µg/mL
MIC ATB combined with Example compound (PAE 105250; MIC of CIP): 0.125 µg/mL
MIC ATB combined with Example compound (PAE 105250; MIC of CPO): 16 µg/mL
MIC (PAE 105250; [2]): > 32 µg/mL
MIC ATB combined with Example (SPN 49619; ATB ATM): >32 µg/mL
MIC ATB combined with Example (SPN 49619; ATB FEP): 0.063 µg/mL
MIC ATB combined with Example (SPN 49619; ATB FOS): 16 µg/mL
MIC ATB combined with Example (SPN 49619; ATB MEM): <=0.031 μg/mL
MIC ATB combined with Example (SPN 49619; ATB PIP): 0.5 µg/mL
MIC ATB combined with Example compound (SPN 49619; MIC of CIP): 0.25 µg/mL
MIC ATB combined with Example compound (SPN 49619; MIC of CLI): 0.031 µg/mL
MIC ATB combined with Example compound (SPN 49619; MIC of CPO): <=0.031 μg/mL
MIC ATB combined with Example compound (SPN 49619; MIC of DAP): 0.125 µg/mL
MIC ATB combined with Example compound (SPN 49619; MIC of ERY): 0.063 µg/mL
MIC ATB combined with Example compound (SPN 49619; MIC of LZD): 0.25 µg/mL
MIC ATB combined with Example compound (SPN 49619; MIC of RIF): 0.0078 µg/mL
MIC ATB combined with Example compound (SPN 49619; MIC of SYN): 0.5 µg/mL
MIC ATB combined with Example compound (SPN 49619; MIC of VAN): 0.125 µg/mL
MIC (SPN 49619; Streptococcus pneumoniae, substance alone, read-out: MIC): 8 µg/mL
SMILES: O=C1N2CC(n3cccn3)=C[C@H](C2)N1OS(=O)(=O)[O-].[Na+] [Example 15, sodium [(5R)-7-oxo-3-pyrazol-1-yl-1,6-diazabicyclo[3.2.1]oct-3-en-6-yl] sulfate]
